Where a name gives a salt, the structure may show the parent alone.
Tests used:
Assay type in all cases: biochemical
[1] = biological target: T1, human JAK1 (a.a. 837-1142) (Homo sapiens, UniProt P23458); assay: In vitro JAK kinase assay (HTRF, phosphorylation of a biotinylated peptide), JAK1; details: Table B1; read-out: JAK1 IC50
T1 construct: human JAK1 (a.a. 837-1142); His tag (N); made in house; host or cells: insect cells (baculovirus)
Method in brief: (§1)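 Kinase activity was measured as phosphorylation of a biotinylated peptide, with ATP at 90 μM for JAK1, 30 μM for JAK2 and 3 μM for JAK3. Reactions ran 1 hr at room temperature, were stopped with EDTA plus SA-APC and Eu-Py20, and were read by HTRF after 40 minutes of antibody binding.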

[2] = biological target: T2, human JAK2 (a.a. 828-1132) (Homo sapiens, UniProt O60674); assay: In vitro JAK kinase assay (HTRF, phosphorylation of a biotinylated peptide), JAK2; details: Table B1
T2 construct: JAK2 (a.a. 828-1132); His tag (N); made in house; host or cells: insect cells (baculovirus)
T2 sequence (O60674 828-1132): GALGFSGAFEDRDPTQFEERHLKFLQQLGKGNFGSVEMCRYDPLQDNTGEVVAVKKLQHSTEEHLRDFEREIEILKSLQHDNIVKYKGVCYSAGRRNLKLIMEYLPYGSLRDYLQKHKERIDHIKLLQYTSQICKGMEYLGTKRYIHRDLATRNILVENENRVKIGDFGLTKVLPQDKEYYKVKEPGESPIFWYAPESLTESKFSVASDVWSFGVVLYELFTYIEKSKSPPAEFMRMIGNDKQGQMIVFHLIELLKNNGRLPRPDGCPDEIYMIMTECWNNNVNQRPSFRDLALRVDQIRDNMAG
Method in brief: as §1

[3] = biological target: T3, human JAK3 (a.a. 781-1124) (Homo sapiens, UniProt P52333); assay: In vitro JAK kinase assay (HTRF, phosphorylation of a biotinylated peptide), JAK3; details: Table B1
T3 construct: JAK3 (a.a. 781-1124); His tag (N); made in house; host or cells: insect cells (baculovirus)
T3 sequence (P52333 781-1124): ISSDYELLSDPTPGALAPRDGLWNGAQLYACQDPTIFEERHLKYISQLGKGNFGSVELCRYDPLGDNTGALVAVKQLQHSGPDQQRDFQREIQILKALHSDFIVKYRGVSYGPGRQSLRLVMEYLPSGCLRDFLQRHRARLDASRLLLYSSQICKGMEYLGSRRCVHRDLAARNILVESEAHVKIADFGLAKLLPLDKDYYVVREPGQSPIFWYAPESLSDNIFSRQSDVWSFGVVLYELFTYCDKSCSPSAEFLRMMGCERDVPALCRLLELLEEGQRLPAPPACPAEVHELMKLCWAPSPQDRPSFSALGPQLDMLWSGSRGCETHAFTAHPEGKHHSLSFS
Method in brief: as §1

TYK2 = TYK2 (Homo sapiens, UniProt P29597); assay: TYK2 kinase inhibition (Table A1); details: Table B1
TYK2, sequence (P29597 whole entry): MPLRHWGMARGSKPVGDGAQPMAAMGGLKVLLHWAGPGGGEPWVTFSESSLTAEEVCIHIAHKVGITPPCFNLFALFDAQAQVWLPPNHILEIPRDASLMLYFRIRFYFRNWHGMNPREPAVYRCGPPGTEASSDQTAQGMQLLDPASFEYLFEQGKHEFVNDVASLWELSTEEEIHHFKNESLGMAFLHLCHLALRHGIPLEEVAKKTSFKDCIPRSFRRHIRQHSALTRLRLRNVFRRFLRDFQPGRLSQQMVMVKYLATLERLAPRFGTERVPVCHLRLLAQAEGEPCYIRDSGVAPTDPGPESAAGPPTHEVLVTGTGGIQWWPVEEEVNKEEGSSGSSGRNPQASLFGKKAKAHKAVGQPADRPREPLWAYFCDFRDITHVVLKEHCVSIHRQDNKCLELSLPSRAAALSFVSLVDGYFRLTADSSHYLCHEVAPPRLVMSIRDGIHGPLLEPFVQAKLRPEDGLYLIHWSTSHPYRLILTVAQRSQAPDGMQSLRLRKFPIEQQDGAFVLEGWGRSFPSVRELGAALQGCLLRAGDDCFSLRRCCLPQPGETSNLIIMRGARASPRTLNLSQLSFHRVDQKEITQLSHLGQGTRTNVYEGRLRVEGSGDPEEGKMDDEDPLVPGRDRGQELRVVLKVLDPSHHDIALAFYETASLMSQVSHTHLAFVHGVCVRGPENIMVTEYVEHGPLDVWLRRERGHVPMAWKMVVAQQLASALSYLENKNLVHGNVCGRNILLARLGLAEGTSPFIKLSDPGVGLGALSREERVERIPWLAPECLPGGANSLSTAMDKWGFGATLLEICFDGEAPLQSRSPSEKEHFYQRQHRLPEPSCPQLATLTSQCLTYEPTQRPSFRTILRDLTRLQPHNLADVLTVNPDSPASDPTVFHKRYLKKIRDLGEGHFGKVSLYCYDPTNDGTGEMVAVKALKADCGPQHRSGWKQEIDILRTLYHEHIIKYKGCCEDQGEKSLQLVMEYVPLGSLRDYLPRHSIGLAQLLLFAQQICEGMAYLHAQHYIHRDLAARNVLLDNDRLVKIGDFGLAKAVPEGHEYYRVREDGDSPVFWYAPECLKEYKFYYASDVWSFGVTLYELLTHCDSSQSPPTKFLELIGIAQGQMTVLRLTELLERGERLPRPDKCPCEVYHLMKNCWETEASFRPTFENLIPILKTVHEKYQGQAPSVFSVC

[4] = biological target: T4, Recombinant Human Anaplastic Lymphoma Kinase (Homo sapiens, UniProt Q9UM73); assay: ALK HTRF kinase assay; details: compound at a concentration of 500 nM or 1 mM (not specified); cells shown as percentage
T4 construct: purchased Invitrogen, Carlsbad, Calif
T4 sequence (Q9UM73 19-1620): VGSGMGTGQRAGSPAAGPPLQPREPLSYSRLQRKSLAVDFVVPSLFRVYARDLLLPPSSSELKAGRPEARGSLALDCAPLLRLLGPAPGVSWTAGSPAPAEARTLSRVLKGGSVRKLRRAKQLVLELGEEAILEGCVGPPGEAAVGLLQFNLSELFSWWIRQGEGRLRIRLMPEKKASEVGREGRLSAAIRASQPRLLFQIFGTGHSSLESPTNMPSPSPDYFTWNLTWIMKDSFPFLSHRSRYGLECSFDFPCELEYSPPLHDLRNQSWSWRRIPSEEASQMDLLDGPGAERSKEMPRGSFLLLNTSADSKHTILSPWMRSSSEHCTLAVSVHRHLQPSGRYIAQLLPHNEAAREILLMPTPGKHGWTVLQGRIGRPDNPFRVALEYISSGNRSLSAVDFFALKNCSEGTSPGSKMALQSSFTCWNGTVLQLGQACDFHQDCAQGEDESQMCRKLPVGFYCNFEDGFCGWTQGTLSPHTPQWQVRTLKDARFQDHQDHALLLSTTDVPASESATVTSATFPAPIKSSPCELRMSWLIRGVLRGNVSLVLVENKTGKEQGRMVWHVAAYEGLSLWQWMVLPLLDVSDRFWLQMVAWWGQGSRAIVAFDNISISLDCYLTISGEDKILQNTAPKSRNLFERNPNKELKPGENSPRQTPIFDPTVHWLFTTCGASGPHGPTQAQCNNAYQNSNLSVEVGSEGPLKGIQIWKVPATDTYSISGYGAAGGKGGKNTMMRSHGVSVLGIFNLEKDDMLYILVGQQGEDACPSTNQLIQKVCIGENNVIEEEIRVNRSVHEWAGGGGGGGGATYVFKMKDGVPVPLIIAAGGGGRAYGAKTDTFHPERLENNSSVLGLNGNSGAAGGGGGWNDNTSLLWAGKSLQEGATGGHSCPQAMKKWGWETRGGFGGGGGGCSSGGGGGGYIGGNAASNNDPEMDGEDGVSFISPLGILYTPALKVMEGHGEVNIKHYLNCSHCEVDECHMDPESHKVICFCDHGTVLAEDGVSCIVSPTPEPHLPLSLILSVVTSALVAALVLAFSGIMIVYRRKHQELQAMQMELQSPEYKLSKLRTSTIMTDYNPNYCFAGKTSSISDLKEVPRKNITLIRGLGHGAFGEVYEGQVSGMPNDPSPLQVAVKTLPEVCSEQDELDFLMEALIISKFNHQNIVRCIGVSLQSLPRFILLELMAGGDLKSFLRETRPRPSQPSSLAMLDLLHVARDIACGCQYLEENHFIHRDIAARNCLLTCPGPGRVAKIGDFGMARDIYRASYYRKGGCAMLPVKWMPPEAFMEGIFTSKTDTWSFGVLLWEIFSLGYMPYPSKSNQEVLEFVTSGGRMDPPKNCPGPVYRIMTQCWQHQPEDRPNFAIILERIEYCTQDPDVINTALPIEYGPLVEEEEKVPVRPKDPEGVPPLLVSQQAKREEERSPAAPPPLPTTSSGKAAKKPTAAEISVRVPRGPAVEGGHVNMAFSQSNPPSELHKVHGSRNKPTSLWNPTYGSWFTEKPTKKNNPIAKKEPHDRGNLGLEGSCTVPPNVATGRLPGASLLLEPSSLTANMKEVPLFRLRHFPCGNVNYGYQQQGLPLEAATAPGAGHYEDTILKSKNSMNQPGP
Method in brief: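 Biotinylated peptide substrate, recombinant human ALK; detection via europium-chelate antibody to phosphotyrosine paired with streptavidin-APC. Potency expressed as IC50 from four-parameter curve fitting.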

T1 sequence (P23458 849-1154): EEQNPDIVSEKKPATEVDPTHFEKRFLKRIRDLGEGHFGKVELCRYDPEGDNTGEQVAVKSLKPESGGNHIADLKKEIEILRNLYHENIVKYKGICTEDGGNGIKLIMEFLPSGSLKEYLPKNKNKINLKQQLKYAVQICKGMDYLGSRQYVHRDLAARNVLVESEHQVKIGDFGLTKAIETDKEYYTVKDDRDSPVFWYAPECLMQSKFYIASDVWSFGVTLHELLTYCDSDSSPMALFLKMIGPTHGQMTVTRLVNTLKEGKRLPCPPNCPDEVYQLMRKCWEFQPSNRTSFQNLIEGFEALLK

IC50 [1] [nM]	IC50 [2] [nM]	IC50 [3] [nM]	IC50 (TYK2) [nM]	ALK % of inhibition at a concentration of 500 nM or 1 mM [4] [%]	SMILES
19	8.9	41	41	28	Clc1cnc2nc1Nc1ccc(CN3CCNCC3)c(c1)CCc1cccc(c1)N2 [Example B224, 6-Chloro-12-(piperazin-1-ylmethyl)-2,4,8,22-tetraazatetracyclo[14.3.1.1(3,7).1(9,13)]docosa-1(20),3(22),4,6,9(21),10,12,16,18-nonaene tris(trifluoroacetate)]
31	10	37	46	27	CC(=O)N1CCN(Cc2ccc3cc2CCc2cccc(c2)Nc2ncc(Cl)c(n2)N3)CC1 [Example B225, 12-[(4-Acetylpiperazin-1-yl)methyl]-6-chloro-2,4,8,22-tetraazatetracyclo[14.3.1.1(3,7).1(9,13)]docosa-1(20),3(22),4,6,9(21),10,12,16,18-nonaene bis(trifluoroacetate)]
4	42	306	62	15	CC(=O)N1CC[C@H](NC(=O)Nc2ccc3cc2CCc2cncc(c2)Nc2ncc(Cl)c(n2)N3)C1 [Example B226, N-[(3S)-1-Acetylpyrrolidin-3-yl]-N′-[6-chloro-2,4,8,18,22-pentaazatetracyclo[14.3.1.1(3,7).1(9,13)]docosa-1(20),3(22),4,6,9(21),10,12,16,18-nonaen-12-yl]urea bis(trifluoroacetate)]
1	29	245	33	25	O=C(Nc1ccc2cc1CCc1cncc(c1)Nc1ncc(Cl)c(n1)N2)N[C@H]1CCN(C(=O)c2ccccc2)C1 [Example B227, N-[(3S)-1-benzoylpyrrolidin-3-yl]-N′-[6-chloro-2,4,8,18,22-pentaazatetracyclo[14.3.1.1(3,7).1(9,13)]docosa-1(20),3(22),4,6,9(21),10,12,16,18-nonaen-12-yl]urea bis(trifluoroacetate)]
6	11	63	19	10	O=C(Nc1ccc2cc1CCc1cccc(c1)Nc1ncc(Cl)c(n1)N2)N[C@H]1CCN(C(=O)C2CC2)C1 [Example B228, N-[6-Chloro-2,4,8,22-tetraazatetracyclo[14.3.1.1(3,7).1(9,13)]docosa-1(20),3(22),4,6,9(21),10,12,16,18-nonaen-12-yl]-N′-[(3S)-1-(cyclopropylcarbonyl)pyrrolidin-3-yl]urea trifluoroacetate]
9	17	76	19	6.5	CC(C)C(=O)N1CC[C@H](NC(=O)Nc2ccc3cc2CCc2cccc(c2)Nc2ncc(Cl)c(n2)N3)C1 [Example B229, N-[6-Chloro-2,4,8,22-tetraazatetracyclo[14.3.1.1(3,7).1(9,13)]docosa-1(20),3(22),4,6,9(21),10,12,16,18-nonaen-12-yl]-N′-[(3S)-1-isobutyrylpyrrolidin-3-yl]urea trifluoroacetate]
2	7	50	15	11	O=C(Nc1ccc2cc1CCc1cccc(c1)Nc1ncc(Cl)c(n1)N2)N[C@H]1CCN(C(=O)c2ccno2)C1 [Example B230, N-[6-Chloro-2,4,8,22-tetraazatetracyclo[14.3.1.1(3,7).1(9,13)]docosa-1(20),3(22),4,6,9(21),10,12,16,18-nonaen-12-yl]-N′-[(3S)-1-(isoxazol-5-ylcarbonyl)pyrrolidin-3-yl]urea trifluoroacetate]
4	5.5	65	16	8.1	O=C(Nc1ccc2cc1CCc1cccc(c1)Nc1ncc(Cl)c(n1)N2)N[C@H]1CCN(C(=O)c2nccs2)C1 [Example B231, N-[6-Chloro-2,4,8,22-tetraazatetracyclo[14.3.1.1(3,7).1(9,13)]docosa-1(20),3(22),4,6,9(21),10,12,16,18-nonaen-12-yl]-N′-[(3S)-1-(1,3-thiazol-2-ylcarbonyl)pyrrolidin-3-yl]urea trifluoroacetate]
4	11	72	26	10	Cn1ccc(C(=O)N2CC[C@H](NC(=O)Nc3ccc4cc3CCc3cccc(c3)Nc3ncc(Cl)c(n3)N4)C2)n1 [Example B232, N-[6-Chloro-2,4,8,22-tetraazatetracyclo[14.3.1.1(3,7).1(9,13)]docosa-1(20),3(22),4,6,9(21),10,12,16,18-nonaen-12-yl]-N′-{(3S)-1-[(1-methyl-1H-pyrazol-3-yl)carbonyl]pyrrolidin-3-yl}urea bis(trifluoroacetate)]
7	11	102	24	5.8	O=C(Nc1ccc2cc1CCc1cccc(c1)Nc1ncc(Cl)c(n1)N2)N[C@H]1CCN(C(=O)c2ccccn2)C1 [Example B233, N-[6-Chloro-2,4,8,22-tetraazatetracyclo[14.3.1.1(3,7).1(9,13)]docosa-1(20),3(22),4,6,9(21),10,12,16,18-nonaen-12-yl]-N′-[(3S)-1-(pyridin-2-ylcarbonyl)pyrrolidin-3-yl]urea bis(trifluoroacetate)]
4	6.5	40	11	31	O=C(Nc1ccc2cc1CCc1cccc(c1)Nc1ncc(Cl)c(n1)N2)N[C@H]1CCN(C(=O)c2ccncc2)C1 [Example B234, N-[6-Chloro-2,4,8,22-tetraazatetracyclo[14.3.1.1(3,7).1(9,13)]docosa-1(20),3(22),4,6,9(21),10,12,16,18-nonaen-12-yl]-N′-[(3S)-1-isonicotinoylpyrrolidin-3-yl]urea bis(trifluoroacetate)]
6	21	213	36	7.3	N#Cc1ccc(C(=O)N2CC[C@H](NC(=O)Nc3ccc4cc3CCc3cccc(c3)Nc3ncc(Cl)c(n3)N4)C2)cc1 [Example B235, N-[6-Chloro-2,4,8,22-tetraazatetracyclo[14.3.1.1(3,7).1(9,13)]docosa-1(20),3(22),4,6,9(21),10,12,16,18-nonaen-12-yl]-N′-[(3S)-1-(4-cyanobenzoyl)pyrrolidin-3-yl]urea trifluoroacetate]
1.7	1.7	9.7	6.1	29	CC(C)(C)OC(=O)N[C@@H]1CCN(C(=O)Nc2ccc3cc2CCc2cccc(c2)Nc2ncc(Cl)c(n2)N3)C1 [Example B236, tert-Butyl [(3R)-1-({[6-chloro-2,4,8,22-tetraazatetracyclo[14.3.1.1(3,7).1(9,13)]docosa-1(20),3(22),4,6,9(21),10,12,16,18-nonaen-12-yl]amino}carbonyl)pyrrolidin-3-yl]carbamate]
7.9	18	122	16	6.2	CC(C)(C)OC(=O)N1CCCC(NC(=O)Nc2ccc3cc2CCc2cccc(c2)Nc2ncc(Cl)c(n2)N3)C1 (stereo not shown) [Example B237, tert-Butyl 3-[({[6-chloro-2,4,8,22-tetraazatetracyclo[14.3.1.1(3,7).1(9,13)]docosa-1(20),3(22),4,6,9(21),10,12,16,18-nonaen-12-yl]amino}carbonyl)amino]piperidine-1-carboxylate]
8.1	17	274	50	15	O=C(Nc1ccc2cc1CCc1cccc(c1)Nc1ncc(Cl)c(n1)N2)NC1CCCNC1 (stereo not shown) [Example B238, N-[6-Chloro-2,4,8,22-tetraazatetracyclo[14.3.1.1(3,7).1(9,13)]docosa-1(20),3(22),4,6,9(21),10,12,16,18-nonaen-12-yl]-N′-piperidin-3-ylurea bis(trifluoroacetate)]
6.4	8.9	35	24	21	CN(C)C(=O)Nc1ccc2cc1CCc1cccc(c1)Nc1ncc(Cl)c(n1)N2 [Example B239, N′-[6-Chloro-2,4,8,22-tetraazatetracyclo[14.3.1.1(3,7).1(9,13)]docosa-1(20),3(22),4,6,9(21),10,12,16,18-nonaen-12-yl]-N,N-dimethylurea trifluoroacetate]
1.5	0.74	10	4	15	O=C(Nc1ccc2cc1CCc1cccc(c1)Nc1ncc(Cl)c(n1)N2)NC1CC1 [Example B240, N-[6-Chloro-2,4,8,22-tetraazatetracyclo[14.3.1.1(3,7).1(9,13)]docosa-1(20),3(22),4,6,9(21),10,12,16,18-nonaen-12-yl]-N′-cyclopropylurea trifluoroacetate]

Reference: patent publication US8871753B2, “Macrocyclic compounds and their use as kinase inhibitors” (Incyte Corporation, priority 2008, dated 2014)
